We go through one compound from PMC11793105, “A kalihinol analog disrupts apicoplast function and vesicular trafficking in P. falciparum malaria” (Science (New York, N.Y.), 2024).

Series [1] relates to P. knowlesi YH1 rhesus erythrocyte infecting parasites. Description: P. knowlesi in vitro IC50 assay (flow cytometry), rhesus erythrocytes. It is filed as cell-based. Conditions: Plasmodium knowlesi, in Macaca mulatta. The procedure:
Fig. 5. In vivo and broad-spectrum antimalarial efficacy of MED6-189. (A) The in vivo efficacy of MED6-189 was evaluated in a humanized mouse model infected with P. falciparum (blue) compared with untreated controls (black). […] The graphs illustrate the logarithmic growth of parasites (y axis) in response to varying drug concentrations (x axis). Error bars represent standard deviations from two independent experiments conducted in triplicate. The regression line is derived from a nonlinear regression analysis (variable slope with four parameters, least squares fit). (C) Proposed mode of action of MED6-189 in P. falciparum–infected erythrocytes. […]
Detailed information on materials and methods is available in the supplementary materials. […] P. knowlesi assays were quantitatively measured by flow cytometry using SYBR Green I and Mitrotracker Deep Red, as previously described ([84], [85]), on a Beckman Coulter CytoFLEX. […]
P. falciparum in vitro SYBR green fluorescence-based assays The anti-malarial activity of individual analogues were evaluated in-vitro against P. falciparum 3D7 (MRA-102, drug […]
green-I based fluorescence assay. Parasite growth rate and stages of development were determined via microscopy through Giemsa-stained smears of the cultures. […]

Another series has as its system P. falciparum cultures. The experiment in a line: Exponential killing rate at IC80. Type of series: cell-based, Plasmodium falciparum. Particulars: triplicate.
The test system of another series is HepG2. The experiment in a line: Human cell line activity, HepG2. It is filed as cell-based. Particulars: HepG2, read-out: IC50 (µM) HepG2.
Series [2] in a line: Time course stability to conditions of varying pH (mass spectrometric assay). It is filed as physicochemical. Particulars: aqueous buffers pH 2-7, room temperature, 10 min to 16 h; stable down to pH 4. The method, then: removed under reduced pressure in a rotary evaporator then under high vacuum to afford bis-formamide GB-209-3 as a colorless oil that solidified upon standing (5.2 mg, 96% yield).
Note: GB-209-3 was observed as four different amide rotamer ic species (estimated ratio = 54:35:7:4) under ambient conditions, complicating NMR spectroscopic analysis:
Isonitriles are known to be somewhat reactive functional groups. While previous studies […]
stability,3 we also wanted to account for the potential stomach-acid-catalyzed hydrolysis of the isonitriles in the course of in vivo experiments. We developed a mass spectrometric assay to understand the acid stability of the isonitriles with respect to hydrolysis to the corresponding formamides. […]
Supporting Table 1. a. Ionization (ES+) and b. inlet parameters for quantification of MED6-189 and formamides GB-209-2, and GB-209-3. […]
GB-209-2 and GB-209-3 were determined for each aliquot and plotted over time for respective pH values in the figure below describing the time course stability of MED6 -189 to conditions of varying pH over time via quantitative analysis of formamide products GB -209-2 and GB-209-3.
Time course stability of MED6 -189 to conditions of varying pH over time via quantitative analysis of formamide products GB -209-2 and GB-209-3. […]

As a reminder, the IC50 is the concentration at which inhibition is half-maximal. For the compound `[C-]#[N+][C@]1(C)CC[C@H]2[C@@H]([C@@H](C(C)C)CC[C@]2(C)[N+]#[C-])[C@H]1O` [MED6-189], the figures for the IC50 (in series [1]; in the series on HepG2) were 0.276 ± 0.022 µM and 34 µM, respectively. Moreover, the “Exponential killing rate k = (1/t)* log10(N0/Nt)” value with P. falciparum cultures (at IC80, 48 HPS) is listed as 0.008801; with P. falciparum cultures (at IC80, 72 HPS), 0.007941; in the series with P. falciparum cultures (at IC80, 100 HPS) it was 0.0183. Besides, the “stability to aqueous acidic conditions (hydrolysis to formamides)” value in series [2] is on record as “reasonable stability”.
